Measurements as given in the supplement of paper PMC4862054.

What was measured:
Conditions in all cases: incubation time: 72 h
HDQ-P1 [1] = test: normalised viability (% of control), CellTiter-Blue; higher = more viable cells (100 = DMSO, 0 = benzethonium chloride kill control)
Method in brief: (§1)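 Each value is normalised viability at a single listed concentration of the series. Breast cancer cell lines in 384-well plates were incubated 72 h with compound and read by CellTiter-Blue fluorescence at 560/590 nm, with vehicle set to 100 and a positive kill control to 0 on every plate.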

DU-4475 [2] = test: as above
Method in brief: as §1

HCC1937 [3] = test: as above
Method in brief: as §1

MDA-MB-231 [4] = test: as above
Method in brief: as §1

BT-549 [5] = test: as above
Method in brief: as §1

CAL-85-1 [6] = test: as above
Method in brief: as §1

MDA-MB-453 [7] = test: as above
Method in brief: as §1

HCC1143 [8] = test: as above
Method in brief: as §1

CAL-120 [9] = test: as above
Method in brief: as §1

BT-474 [10] = test: as above
Method in brief: as §1

MDA-MB-468 [11] = test: as above
Method in brief: as §1

HCC1599 [12] = test: as above
Method in brief: as §1

MDA-MB-436 [13] = test: as above
Method in brief: as §1

SK-BR-3 [14] = test: as above
Method in brief: as §1

Hs578T [15] = test: as above
Method in brief: as §1

CAL-148 [16] = test: as above
Method in brief: as §1

MFM-223 [17] = test: as above
Method in brief: as §1

CAL-51 [18] = test: as above
Method in brief: as §1

HDQ-P1 [19] = test: normalised response (% of control), CellTiter-Glo; higher = more viable cells (100 = DMSO, 0 = benzethonium chloride kill control)
Method in brief: (§2)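 Breast cancer cell lines (20 µl suspension) were seeded into 384-well plates holding compound at 5 concentrations in 10-fold steps over a compound-specific 10,000-fold range, then incubated 72 h. CellTox Green fluorescence (485/520 nm) was read first, then CellTiter-Glo luminescence after 10 min at room temperature. Each plate was normalised to 0.1 % DMSO (100) and a positive kill control (0). Each value is the normalised signal at a single concentration of the series.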

DU-4475 [20] = test: as above
Method in brief: as §2

HCC1937 [21] = test: as above
Method in brief: as §2

MDA-MB-231 [22] = test: as above
Method in brief: as §2

BT-549 [23] = test: as above
Method in brief: as §2

CAL-85-1 [24] = test: as above
Method in brief: as §2

MCF-10A = test: as above
Method in brief: as §2

MDA-MB-453 [25] = test: as above
Method in brief: as §2

HCC1143 [26] = test: as above
Method in brief: as §2

CAL-120 [27] = test: as above
Method in brief: as §2

BT-474 [28] = test: as above
Method in brief: as §2

MDA-MB-468 [29] = test: as above
Method in brief: as §2

HCC1599 [30] = test: as above
Method in brief: as §2

MDA-MB-436 [31] = test: as above
Method in brief: as §2

SK-BR-3 [32] = test: as above
Method in brief: as §2

Hs578T [33] = test: as above
Method in brief: as §2

CAL-148 [34] = test: as above
Method in brief: as §2

MFM-223 [35] = test: as above
Method in brief: as §2

CAL-51 [36] = test: as above
Method in brief: as §2

SMILES: COc1cccc2c1C(=O)c1c(O)c3c(c(O)c1C2=O)C[C@@](O)(C(C)=O)C[C@@H]3O[C@H]1C[C@H](N)[C@H](O)[C@H](C)O1 [Daunorubicin] (0.1 nM)
- normalised viability (HDQ-P1 [1]): 98.8%
- normalised viability (DU-4475 [2]): 88.2%
- normalised viability (HCC1937 [3]): 115%
- normalised viability (MDA-MB-231 [4]): 103%
- normalised viability (BT-549 [5]): 100%
- normalised viability (CAL-85-1 [6]): 88.7%
- normalised viability (MDA-MB-453 [7]): 107%
- normalised viability (HCC1143 [8]): 102%
- normalised viability (CAL-120 [9]): 87.8%
- normalised viability (BT-474 [10]): 101%
- normalised viability (MDA-MB-468 [11]): 100%
- normalised viability (HCC1599 [12]): 101%
- normalised viability (MDA-MB-436 [13]): 99.1%
- normalised viability (SK-BR-3 [14]): 85.2%
- normalised viability (Hs578T [15]): 130%
- normalised viability (CAL-148 [16]): 106%
- normalised viability (MFM-223 [17]): 97.3%
- normalised viability (CAL-51 [18]): 99.2%
- normalised response (HDQ-P1 [19]): 104%
- normalised response (DU-4475 [20]): 100%
- normalised response (HCC1937 [21]): 95.6%
- normalised response (MDA-MB-231 [22]): 105%
- normalised response (BT-549 [23]): 106%
- normalised response (CAL-85-1 [24]): 102%
- normalised response (MCF-10A): 112%
- normalised response (MDA-MB-453 [25]): 112%
- normalised response (HCC1143 [26]): 103%
- normalised response (CAL-120 [27]): 99%
- normalised response (BT-474 [28]): 108%
- normalised response (MDA-MB-468 [29]): 102%
- normalised response (HCC1599 [30]): 104%
- normalised response (MDA-MB-436 [31]): 129%
- normalised response (SK-BR-3 [32]): 101%
- normalised response (Hs578T [33]): 107%
- normalised response (CAL-148 [34]): 112%
- normalised response (MFM-223 [35]): 108%
- normalised response (CAL-51 [36]): 108%

SMILES: O=c1[nH]c(=O)n([C@H]2C[C@H](O)[C@@H](CO)O2)cc1F [Floxuridine] (1 nM)
- normalised viability (HDQ-P1 [1]): 108%
- normalised viability (DU-4475 [2]): 104%
- normalised viability (HCC1937 [3]): 89.2%
- normalised viability (MDA-MB-231 [4]): 99%
- normalised viability (BT-549 [5]): 123%
- normalised viability (CAL-85-1 [6]): 94.1%
- normalised viability (MDA-MB-453 [7]): 108%
- normalised viability (HCC1143 [8]): 98.6%
- normalised viability (CAL-120 [9]): 100%
- normalised viability (BT-474 [10]): 91.2%
- normalised viability (MDA-MB-468 [11]): 99.9%
- normalised viability (HCC1599 [12]): 95.7%
- normalised viability (MDA-MB-436 [13]): 112%
- normalised viability (SK-BR-3 [14]): 97.2%
- normalised viability (Hs578T [15]): 130%
- normalised viability (CAL-148 [16]): 102%
- normalised viability (MFM-223 [17]): 103%
- normalised viability (CAL-51 [18]): 98.2%
- normalised response (HDQ-P1 [19]): 102%
- normalised response (DU-4475 [20]): 103%
- normalised response (HCC1937 [21]): 99.1%
- normalised response (MDA-MB-231 [22]): 107%
- normalised response (BT-549 [23]): 102%
- normalised response (CAL-85-1 [24]): 95.9%
- normalised response (MCF-10A): 115%
- normalised response (MDA-MB-453 [25]): 104%
- normalised response (HCC1143 [26]): 97.6%
- normalised response (CAL-120 [27]): 101%
- normalised response (BT-474 [28]): 104%
- normalised response (MDA-MB-468 [29]): 105%
- normalised response (HCC1599 [30]): 96.9%
- normalised response (MDA-MB-436 [31]): 132%
- normalised response (SK-BR-3 [32]): 107%
- normalised response (Hs578T [33]): 103%
- normalised response (CAL-148 [34]): 97.7%
- normalised response (MFM-223 [35]): 110%
- normalised response (CAL-51 [36]): 120%

SMILES: COC1=CC(c2cc3ccccc3[nH]2)=N/C1=C\c1[nH]c(C)cc1C [Obatoclax] (1 nM)
- normalised viability (HDQ-P1 [1]): 78.8%
- normalised viability (DU-4475 [2]): 93.6%
- normalised viability (HCC1937 [3]): 90.5%
- normalised viability (MDA-MB-231 [4]): 71.4%
- normalised viability (BT-549 [5]): 90.6%
- normalised viability (CAL-85-1 [6]): 78.3%
- normalised viability (MDA-MB-453 [7]): 86.2%
- normalised viability (HCC1143 [8]): 81%
- normalised viability (CAL-120 [9]): 79.6%
- normalised viability (BT-474 [10]): 96.2%
- normalised viability (MDA-MB-468 [11]): 99%
- normalised viability (HCC1599 [12]): 85.6%
- normalised viability (MDA-MB-436 [13]): 83.5%
- normalised viability (SK-BR-3 [14]): 74.9%
- normalised viability (Hs578T [15]): 103%
- normalised viability (CAL-148 [16]): 94.7%
- normalised viability (MFM-223 [17]): 81%
- normalised viability (CAL-51 [18]): 105%
- normalised response (HDQ-P1 [19]): 92.9%
- normalised response (DU-4475 [20]): 100%
- normalised response (HCC1937 [21]): 95.4%
- normalised response (MDA-MB-231 [22]): 96.6%
- normalised response (BT-549 [23]): 97.7%
- normalised response (CAL-85-1 [24]): 95%
- normalised response (MCF-10A): 87%
- normalised response (MDA-MB-453 [25]): 90.6%
- normalised response (HCC1143 [26]): 92.5%
- normalised response (CAL-120 [27]): 96.4%
- normalised response (BT-474 [28]): 96.6%
- normalised response (MDA-MB-468 [29]): 98.7%
- normalised response (HCC1599 [30]): 87.7%
- normalised response (MDA-MB-436 [31]): 95.6%
- normalised response (SK-BR-3 [32]): 89%
- normalised response (Hs578T [33]): 93.5%
- normalised response (CAL-148 [34]): 87.8%
- normalised response (MFM-223 [35]): 92.8%
- normalised response (CAL-51 [36]): 111%
